From publication PMC11441021, “Novel hybrids of 1,2,3-triazole-benzoxazole: design, synthesis, and assessment of DprE1 enzyme inhibitors using fluorometric assay and computational analysis” (Journal of Enzyme Inhibition and Medicinal Chemistry, 2024)
Values after ≈ are worked out from the molar mass of the structure shown. Values joined by “and” are separate entries in the source; they are usually repeats but may differ in a detail not shown here. Equal entries are not always repeated.

What was measured:
[1] = system: mouse fibroblast 3T3 cells; assay: MTT cytotoxicity assay on mouse fibroblast 3T3 cells; type: cell-based; conditions: for IC50: NIH3T3, MTT assay, read-out: 3T3 cell IC50; for Selectivity index: IC50 (μg/mL)/MIC (μg/mL), 3T3 cells vs Mtb H37Rv
[2] = system: M. tuberculosis H37Rv strain; assay: Resazurin microtiter assay (REMA), MIC against Mtb H37Rv; type: cell-based, Mycobacterium tuberculosis; conditions: MTB H37Rv (ATCC 27294), 7 days incubation, text calls it MIC; for MIC50: Mycobacterium tuberculosis, ATCC 27294 / H37Rv, 168 h
DprE1 = DprE1 (Mycobacterium tuberculosis, UniProt P9WJF1); assay: DprE1 inhibition (resazurin redox indicator, fluorometric) assay; type: biochemical; conditions: purified DprE1, GGPR substrate
Description: For the identification and validation of the biological target for this new series of 1,2,3-triazole-linked benzoxazoles, compounds displaying antimycobacterial activity below 6 μg/mL and showcasing diverse side chains were assessed against the purified DprE1 protein (Table 1). The assessment of the compounds’ ability to inhibit DprE1 activity was conducted through an in-vitro assay. This involved purified DprE1 protein, geranylgeranyl-phosphoryl-β-d-ribose (GGPR) substrate, and resazurin as a redox indicator. The synthesised molecules were tested for their impact on DprE1 activity within this experimental setup. The initial rates of activity, characterised by increasing concentrations of the compound, were measured and compared to the control compound TCA-1. The half maximal inhibitory concentration (IC50) was then calculated for each synthesised compound, quantitatively assessing their inhibitory effect. […] The promising results prompted us to delve deeper into these compounds through initial assessments of their druggability profiles and validation via computational studies. This approach aims to enhance our understanding of the structural features involved in the inhibition mechanism of the DprE1 enzyme, utilising docking and molecular dynamics (MD) simulation studies.
A redox indicator assay was conducted following a previously described protocol, utilising the reduction of resazurin to its fluorescent form, resorufin. In this assay, the DprE1 cofactor FAD undergoes reduction to FADH2, while the C-2 hydroxyl group of the substrate GGPR is oxidised to form a keto-intermediate known as geranylgeranylphosphoryl-β-d-2′-keto-erythro-penta-furanose (GGPX)[11]^,[40]. The inhibition of DprE1 was assessed using an activity assay, with the half maximal inhibitory concentration (IC50) determined for each tested compound. Intermediate plates of compounds were prepared in V-bottomed 96-well plates, where the compounds were serially diluted twofold in DMSO. Subsequently, 1 µL of each compound dilution was pipetted in triplicate into Greiner black-bottomed 384 plates. The master mix (19 µL), comprising 5 µM DprE1, 50 mM Hepes pH 7.5, 100 mM NaCl, and 100 µM resazurin, was added to the compounds in the plate. The assay was initiated with 5 µL of 1 mM GGPR using the pump on the POLARstar Omega plate reader (BMG Labtech). Emission was measured at 590 nm with excitation at 530 nm at 37 °C[41]^. IC50 values were calculated using Prism GraphPad, fitting the data to a four-parameter dose–response curve. The initial rates of activity were used for the calculations, and fluorescence units were converted to µM resazurin reduced by referencing a resorufin standard curve.

[3] = Mus musculus, mouse fibroblast 3T3 cells, cytotoxicity

Chain of DprE1 (P9WJF1 whole entry): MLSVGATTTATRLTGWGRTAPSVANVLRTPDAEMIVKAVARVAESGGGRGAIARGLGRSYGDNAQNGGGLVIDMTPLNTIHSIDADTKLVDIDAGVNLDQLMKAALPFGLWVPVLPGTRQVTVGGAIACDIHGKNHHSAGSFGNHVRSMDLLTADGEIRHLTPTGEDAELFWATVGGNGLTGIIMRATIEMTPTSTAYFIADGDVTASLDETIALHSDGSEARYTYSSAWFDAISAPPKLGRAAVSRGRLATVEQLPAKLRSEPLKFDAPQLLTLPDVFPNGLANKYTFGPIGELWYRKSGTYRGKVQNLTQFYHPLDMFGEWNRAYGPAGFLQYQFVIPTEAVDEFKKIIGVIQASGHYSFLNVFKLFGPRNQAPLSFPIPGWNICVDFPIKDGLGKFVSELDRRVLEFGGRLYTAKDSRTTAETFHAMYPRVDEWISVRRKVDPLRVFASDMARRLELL

In the case of `O=c1[nH]cc(F)c(=O)[nH]1` [5-Fluorouracil, reference compound], the IC50 [1, 3] is reported as 53.7 µg/mL (≈ 413 µM) and the inhibition at 50 µg/mL ([1]; Mus musculus, NIH3T3, MTT assay, 50 μg/mL, read-out: percentage inhibition of 3T3 cells) is reported as greater than 42%.
`O=C(CC(=O)Nc1ccccc1)Cn1cc(CSc2nc3ccccc3o2)nn1` [BOK-1, 4–(4-((Benzo[d]oxazol-2-ylthio)methyl)-1H-1,2,3-triazol-1-yl)-3-oxo-N-phenyl butanamide] showed a Selectivity index [1] of 37.07, an IC50 [1, 3] of 118 µg/mL (≈ 291 µM) and an MIC50 [2] of no more than 6.25 µg/mL. The IC50 (DprE1) was 5.2 ± 0.6 µM.
With `Cc1ccccc1NC(=O)CC(=O)Cn1cc(CSc2nc3ccccc3o2)nn1` [BOK-2, 4–(4-((Benzo[d]oxazol-2-ylthio)methyl)-1H-1,2,3-triazol-1-yl)-3-oxo-N-(o-tolyl) butanamide] the Selectivity index [1] was 57.77, the “3T3 cell IC50” value ([1]; MTT assay, mouse fibroblast 3T3 cells, cytotoxicity) was 103.92 µg/mL and the IC50 [1, 3] was 104 µg/mL (≈ 247 µM). For the same molecule, the IC50 (DprE1) was 2 µM and 2.2 µM.
`O=C(CC(=O)Nc1ccccc1F)Cn1cc(CSc2nc3ccccc3o2)nn1` [BOK-3, 4–(4-((Benzo[d]oxazol-2-ylthio)methyl)-1H-1,2,3-triazol-1-yl)-N-(2-fluorophenyl)-3-oxobutanamide] gave a Selectivity index [1] of 46.75, an IC50 [1, 3] of 112 µg/mL (≈ 263 µM) and an IC50 (DprE1) of 3 ± 0.6 µM.
For `O=C(CC(=O)Nc1cccc(Cl)c1)Cn1cc(CSc2nc3ccccc3o2)nn1` [BOK-4, 4–(4-((Benzo[d]oxazol-2-ylthio)methyl)-1H-1,2,3-triazol-1-yl)-N-(3-chlorophenyl)-3-oxobutanamide], the melting point was 165 to 169 °C, the “Mtb H37Rv MIC50” value [2] was 6.9 µg/mL and the MIC50 [2] was 3.7 µg/mL (≈ 8.37 µM).
For `Cc1ccc(NC(=O)CC(=O)Cn2cc(CSc3nc4ccccc4o3)nn2)cc1` [BOK-5, 4–(4-((Benzo[d]oxazol-2-ylthio)methyl)-1H-1,2,3-triazol-1-yl)-3-oxo-N-(p-tolyl) butanamide], the melting point was 175 to 179 °C and the MIC50 [2] was 11.6 µg/mL (≈ 27.5 µM).
Work on `O=C(CC(=O)Nc1ccc(C(F)(F)F)cc1)Cn1cc(CSc2nc3ccccc3o2)nn1` [BOK-6, 4–(4-((Benzo[d]oxazol-2-ylthio)methyl)-1H-1,2,3-triazol-1-yl)-3-oxo-N-(4-(trifluoromethyl)phenyl)butanamide] yielded a melting point of 185 to 189 °C and an MIC50 [2] of 39.6 µg/mL (≈ 83.3 µM).
With `O=C(CC(=O)Nc1ccc(Cl)cc1)Cn1cc(CSc2nc3ccccc3o2)nn1` [BOK-7, 4–(4-((Benzo[d]oxazol-2-ylthio)methyl)-1H-1,2,3-triazol-1-yl)-N-(4-chlorophenyl)-3-oxo butanamide] the melting point was 171 to 174 °C, the “Mtb H37Rv MIC50” value [2] was 6.7 µg/mL and the MIC50 [2] was 6.9 µg/mL (≈ 15.6 µM).
With `O=C(CC(=O)Nc1ccc(Br)cc1)Cn1cc(CSc2nc3ccccc3o2)nn1` [BOK-8, 4–(4-((Benzo[d]oxazol-2-ylthio)methyl)-1H-1,2,3-triazol-1-yl)-N-(4-bromophenyl)-3-oxo butanamide] the melting point was 210 to 214 °C and the MIC50 [2] was 44.1 µg/mL (≈ 90.7 µM).
For `COc1ccc(NC(=O)CC(=O)Cn2cc(CSc3nc4ccccc4o3)nn2)cc1` [BOK-9, 4–(4-((Benzo[d]oxazol-2-ylthio)methyl)-1H-1,2,3-triazol-1-yl)-N-(4-methoxyphenyl)-3-oxo butanamide], the melting point was 169 to 172 °C and the MIC50 [2] was 10.6 µg/mL (≈ 24.2 µM).
`CCOc1ccc(NC(=O)CC(=O)Cn2cc(CSc3nc4ccccc4o3)nn2)cc1` [BOK-10, 4–(4-((Benzo[d]oxazol-2-ylthio)methyl)-1H-1,2,3-triazol-1-yl)-N-(4-ethoxyphenyl)-3-oxo butanamide] gave a melting point of 175 to 179 °C and an MIC50 [2] of 42.6 µg/mL (≈ 94.4 µM).
With `O=C(Cn1cc(CSc2nc3ccccc3o2)nn1)c1ccccc1` [BOP-1, 2–(4-((Benzo[d]oxazol-2-ylthio)methyl)-1H-1,2,3-triazol-1-yl)-1-phenylethan-1-one] the Selectivity index [1] was 8.76, the IC50 [1, 3] was 51.7 µg/mL (≈ 148 µM) and the MIC50 [2] was no more than 6.25 µg/mL. It also gave an IC50 (DprE1) of 3.3 ± 1 µM.
`COc1ccc(C(=O)Cn2cc(CSc3nc4ccccc4o3)nn2)cc1` [BOP-2, 2–(4-((Benzo[d]oxazol-2-ylthio)methyl)-1H-1,2,3-triazol-1-yl)-1–(4-methoxyphenyl)ethan-1-one] gave a melting point of 148 to 152 °C and an MIC50 [2] of 19.1 µg/mL (≈ 50.1 µM).
Work on `Cc1ccc(C(=O)Cn2cc(CSc3nc4ccccc4o3)nn2)cc1` [BOP-3, 2–(4-((Benzo[d]oxazol-2-ylthio)methyl)-1H-1,2,3-triazol-1-yl)-1-(p-tolyl)ethan-1-one] yielded a melting point of 142 to 146 °C and an MIC50 [2] of 20.5 µg/mL (≈ 56.3 µM).
With `O=C(Cn1cc(CSc2nc3ccccc3o2)nn1)c1ccc(F)cc1` [BOP-4, 2–(4-((Benzo[d]oxazol-2-ylthio)methyl)-1H-1,2,3-triazol-1-yl)-1–(4-fluorophenyl)ethan-1-one] the Selectivity index [1] was 11.62, the IC50 [1, 3] was 55.8 µg/mL (≈ 151 µM) and the MIC50 [2] was no more than 6.25 µg/mL. For the same molecule, the IC50 (DprE1) was 3.1 ± 0.7 µM.
In the case of `O=C(Cn1cc(CSc2nc3ccccc3o2)nn1)c1ccc([N+](=O)[O-])cc1` [BOP-5, 2–(4-((Benzo[d]oxazol-2-ylthio)methyl)-1H-1,2,3-triazol-1-yl)-1–(4-nitrophenyl)ethan-1-one], the melting point is reported as 142 to 146 °C and the MIC50 [2] is reported as 32.3 µg/mL (≈ 81.7 µM).
In the case of `CO[C@H]1/C=C/O[C@@]2(C)Oc3c(C)c(O)c4c(O)c(c(/C=N/N5CCN(C)CC5)c(O)c4c3C2=O)NC(=O)/C(C)=C\C=C\[C@H](C)[C@H](O)[C@@H](C)[C@@H](O)[C@@H](C)[C@H](OC(C)=O)[C@@H]1C` [Rifampicin, reference compound], the MIC50 [2] is reported as less than 0.004 µg/mL.
With `CCOC(=O)NC(=O)c1ccsc1NC(=O)c1nc2ccccc2s1` [TCA-1, reference compound] the IC50 (DprE1) was 3 ± 0.2 µM.
